Experimental data from PMC12679585, “Design, synthesis, and characterization of novel 5-ethylsulfonyl-indazole-3-carboxamides as dual VEGFR-2 and EGFR inhibitors: apoptotic antiproliferative and immunomodulatory evaluations” (RSC Advances, 2025).
Where “and” joins values, the source holds several entries; their conditions need not be identical. Equal values may be shown once.

Key:
[1] = system: p53; experiment: Apoptotic markers assay: p53 level in HCT-116 cells; assay type: cell-based, human
Text: Appendix A gives more details.
Apoptosis dysregulation is a hallmark of human cancer, resulting in uncontrolled proliferation, insufficient response to treatments, and the formation of drug-resistant cells.[60] As a result, current anticancer therapies are recognized for their ability to induce apoptosis in cancer cells via both extrinsic and intrinsic routes.[56]
The ability of p53 overexpression to trigger apoptosis may clarify the common inactivation of p53 enzymes by cancer cells during transformation.[63]

[2] = system: HCT-116 and MCF-7; experiment: Antiproliferative assay, average over the two cell lines; assay type: cell-based; conditions: Homo sapiens; average of HCT-116 and MCF-7; read-out: Average IC50 (GI50)
Text: (§1) The MTT assay[53,54] was employed to evaluate the antiproliferative efficacy of new compounds 8a–l against two human cancer cell lines: MCF-7 (breast) and HCT-116 (colorectal carcinoma). Erlotinib was employed as the benchmark. Check Appendix A for additional experimental information.
(§2) The MTT assay[53,54] was used to evaluate the antiproliferative properties of novel compounds 8a–l against two human cancer cell lines: MCF-7 (breast cancer) and HCT-116 (colorectal carcinoma). Erlotinib was utilized as the reference. […] The provided values represent the means of three experiments ± standard deviation (SD).

[3] = target: EGFR (Homo sapiens, UniProt P00533); experiment: EGFR inhibitory assay (EGFR-TK assay)
Description: Erlotinib was used as positive control in the assay.
To record autophosphorylation level, EGFR kinase assay was carried out on the basis of DELFIA/Time-Resolved Fluorometry. The compounds were first dissolved in DMSO
absolute, subsequent to dilution to appropriate concentration using HEPES (25 mM) at
pH 7.4. Each compound (10 μL) was incubated with recombinant enzyme (10 μL, 5 ng for EGFR, 1:80 dilution in 100 mM HEPES) for 10 min at 25 °C, subsequent to the addition of 5X buffer (10 μL, containing 2 mM MnCl2, 100 μM Na3VO4, 20 mM HEPES and 1 mM DTT) and ATP-MgCl2 (20 μL, containing 0.1 mM ATP and 50 mM MgCl2) and incubation for 1h. The negative and positive controls were included in each plate by the incubation of enzyme either with or without ATP-MgCl2. The liquid was removed after incubation and the plates were washed thrice using a wash buffer.
Europium-tagged antiphosphotyrosine antibody (75 μL, 400 ng) was added to each well followed by incubation of 1h and then washing of the plates using buffer. The enhancement solution was added to each well and the signal was recorded at excitation
The autophosphorylation percentage inhibition by compounds was calculated using the following equation:
Using the curves of percentage inhibition of eight concentrations of each compound,
were from EGFR because the enzyme preparation contained low impurities.

[4] = system: HCT-116; experiment: Antiproliferative assay (MTT); assay type: cell-based; conditions: Homo sapiens, HCT-116 colorectal, mean of three experiments ± SD
Text: as §1
as §2, with “(SD). […]” for “(SD).”
(§3) of Ham's F-12 medium/ Dulbecco's modified Eagle's medium (DMEM) (1:1) supplemented with 10% foetal calf serum (GIBCO, UK), 2 mM glutamine, insulin (10 μg/mL), hydrocortisone (500 ng/mL) and epidermal growth factor (20 ng/mL). Trypsin ethylenediamine tetra acetic acid (EDTA) was used to passage the cells after every 2-3 days. 96-well flat-bottomed cell culture plates were used to seed the cells at a density of 10^4 cells mL-1. The medium was aspirated from all the wells of culture plates after 24 h followed by the addition of synthesized compounds (in 200 μL medium to yield a final concentration of 0.1% (v/v) dimethyl sulfoxide) into individual wells of the plates.
(§4) Four wells were designated to a single compound. The plates were allowed to incubate at 37°C for 96 h. Afterwards, the medium was aspirated and 3-[4,5-dimethylthiazol-2-yl]-2,5-diphenyltetrazolium bromide (MTT) (0.4 mg/mL) in medium was added to each well and subsequently incubated for 3 h. The medium was aspirated and 150 μL dimethyl sulfoxide (DMSO) was added to each well. The plates were vortexed followed by the measurement of absorbance at 540 nm on a microplate reader. […]
(§5) All cell lines […]
(§6) were obtained from ATCC (American Type Cell Culture). […]
(§7) μM), benzamidine HCl (16 μg/mL), NaCl (10 mM),leupeptin (10 μg/mL) and pepstatin (10 μg/mL) at 0°C for 20 min at pH 7.4, followed by centrifugation for 20 min. To eliminate the nonspecifically bound material, a Ni-NTA super flow packed column was (1 picture or pasted object on this page, not shown here)

[5] = system: MCF-7; experiment: Antiproliferative assay (MTT); assay type: cell-based; conditions: Homo sapiens, MCF7, MCF-7 breast, mean of three experiments ± SD
Text: as §1
as §2, with “(SD). […]” for “(SD).”
as §3, §4, §5, §6, §7

[6] = target: VEGFR-2 (Homo sapiens, UniProt P35968); experiment: VEGFR-2 inhibitory assay
Description: Prepare all the solutions using autoclaved, deionized water and analytical grade
reagents. Prepare and store all the reagents at room temperature (unless indicated
EDTA, adjust the pH to 8.0 using NaOH solution, add 5 mL ultra-pure water; 1×Kinase
solution (1 M), 1 mL DTT, 50 μL tween-20, 450 mL ultrapure water, adjust pH to 7.5
and constant volume to 500 mL using ultrapure water; 4×Stop solution (40 mM): Mix
0.8 mL of the foregoing EDTA solution, 1 mL 10×Detection Buffer and 8.2 mL ultra-
pure water; 1×Detection Buffer: Mix 1 mL 10×Detection Buffer with 9 mL water;
before use). The assays used an ULight-labeled peptide substrate and a Europium-
W1024-labeled antiphosphotyrosine antibody. The VEGFR-2 was purchased from
Carna Biosciences, Inc. (New York, USA). The 384-well plates were obtained from
PerkinElmer. Compounds were dissolved in DMSO and diluted to 11 concentrations at
2×VEGFR-2 kinase solution (0.5 nM) was added to 384-well plates homogeneous
mixing and pre-reaction at room temperature for 30 min. […]
well plate, The final concentration of DMSO in the mixing system was 4%. […] The plate was read using an Envision plate reader. The inhibition rate (%) = (positive well reading-compound well reading)/(positive well reading-negative well reading)×100. The corresponding IC50 values were calculated using GraphPad Prism 5.0.

[7] = system: Caspase-9; experiment: Caspase-9 activation assay in HCT-116 cells; conditions: for Caspase-9 fold change: relative to control
[8] = system: Caspase-8; experiment: Caspase-8 activation assay in HCT-116 cells; conditions: for Caspase-8 fold change: relative to control
[9] = Cell viability assay (MTT) on normal mammary epithelial cells; assay type: cell-based; conditions: human, MCF-10A normal mammary gland epithelial cells, four days
Description: This test assesses the safety of new compounds 8a–l on normal cell lines. The efficacy of 8a–l was tested on the normal human mammary gland epithelial cell line MCF-10A. MCF-10A cells were incubated with 50 µM of each tested compound for four days. Cell viability was assessed using the MTT assay.[11,48] Appendix A has extra experimental details.
This assay evaluates the impact of novel compounds 8a–l on normal cell lines to determine their safety, an essential consideration in drug discovery. The efficacy of the examined compounds was evaluated utilizing the normal human mammary gland epithelial cell line MCF-10A. […]
4.2. Biological evaluation
4.2.1 Cell Viability assay (MTT assay)
as §3, with “MTT assay was performed to investigate the effect of the synthesized compounds on mammary epithelial cells (MCF-10A). The cells were propagated in medium consisting of Ham's” for “of Ham's”
as §4

[10] = system: Bax; experiment: Apoptotic markers assay: Bax level in HCT-116 cells; assay type: cell-based, human; conditions: for Bax fold change: relative to untreated control

Sequence of VEGFR-2 (P35968 20-1356): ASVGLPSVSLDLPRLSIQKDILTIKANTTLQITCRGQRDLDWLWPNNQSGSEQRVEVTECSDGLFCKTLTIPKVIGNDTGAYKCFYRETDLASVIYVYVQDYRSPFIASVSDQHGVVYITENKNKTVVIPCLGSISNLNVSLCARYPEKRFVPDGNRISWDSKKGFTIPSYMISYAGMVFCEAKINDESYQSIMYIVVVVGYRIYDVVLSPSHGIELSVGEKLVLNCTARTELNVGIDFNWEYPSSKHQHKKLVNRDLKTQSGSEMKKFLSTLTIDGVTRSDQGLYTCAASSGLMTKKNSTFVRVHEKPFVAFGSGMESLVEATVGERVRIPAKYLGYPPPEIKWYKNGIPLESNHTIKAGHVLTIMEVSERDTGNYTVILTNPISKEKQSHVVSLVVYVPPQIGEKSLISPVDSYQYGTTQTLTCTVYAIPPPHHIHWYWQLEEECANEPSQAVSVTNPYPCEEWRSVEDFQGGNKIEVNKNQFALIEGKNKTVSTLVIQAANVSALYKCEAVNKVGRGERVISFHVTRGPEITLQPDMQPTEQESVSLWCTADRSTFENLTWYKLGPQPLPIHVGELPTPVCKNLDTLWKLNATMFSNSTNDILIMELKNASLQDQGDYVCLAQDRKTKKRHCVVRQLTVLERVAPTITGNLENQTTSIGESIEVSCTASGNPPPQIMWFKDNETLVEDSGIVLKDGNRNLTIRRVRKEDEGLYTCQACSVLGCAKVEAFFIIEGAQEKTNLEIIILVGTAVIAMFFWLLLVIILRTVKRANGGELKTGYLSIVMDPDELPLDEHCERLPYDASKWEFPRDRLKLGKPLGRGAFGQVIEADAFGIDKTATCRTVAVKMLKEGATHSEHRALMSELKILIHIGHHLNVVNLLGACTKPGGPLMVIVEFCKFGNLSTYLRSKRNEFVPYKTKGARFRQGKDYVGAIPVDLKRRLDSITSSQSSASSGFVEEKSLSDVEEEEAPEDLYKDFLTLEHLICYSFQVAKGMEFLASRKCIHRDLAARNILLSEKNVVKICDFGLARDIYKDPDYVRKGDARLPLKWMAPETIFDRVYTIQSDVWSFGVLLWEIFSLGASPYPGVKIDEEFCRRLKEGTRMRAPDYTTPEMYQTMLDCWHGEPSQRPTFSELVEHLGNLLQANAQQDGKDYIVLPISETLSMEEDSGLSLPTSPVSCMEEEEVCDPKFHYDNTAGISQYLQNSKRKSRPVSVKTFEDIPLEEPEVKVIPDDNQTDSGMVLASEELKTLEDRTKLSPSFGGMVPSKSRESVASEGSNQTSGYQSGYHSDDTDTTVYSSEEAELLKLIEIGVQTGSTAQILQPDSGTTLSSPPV
Sequence of EGFR (P00533 669-1210): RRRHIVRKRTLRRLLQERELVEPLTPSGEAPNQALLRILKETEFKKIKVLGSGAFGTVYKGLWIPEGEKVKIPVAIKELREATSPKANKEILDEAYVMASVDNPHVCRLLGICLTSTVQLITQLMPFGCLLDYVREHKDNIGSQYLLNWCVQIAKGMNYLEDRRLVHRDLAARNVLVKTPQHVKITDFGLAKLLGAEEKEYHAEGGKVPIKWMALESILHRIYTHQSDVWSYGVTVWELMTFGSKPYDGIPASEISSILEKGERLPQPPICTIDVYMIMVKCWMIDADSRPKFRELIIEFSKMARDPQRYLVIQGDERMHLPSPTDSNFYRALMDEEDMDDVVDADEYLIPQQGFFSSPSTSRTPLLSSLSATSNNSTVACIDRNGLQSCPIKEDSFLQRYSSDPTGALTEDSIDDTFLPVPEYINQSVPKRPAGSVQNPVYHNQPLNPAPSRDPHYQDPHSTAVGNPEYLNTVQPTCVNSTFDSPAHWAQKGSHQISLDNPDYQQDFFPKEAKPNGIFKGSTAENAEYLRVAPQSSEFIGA

Row | IC50 [2] [nM] | IC50 [3] [nM] | IC50 [4] [nM] | IC50 [5] [nM] | IC50 [6] [nM] | SMILES | p53 level [1] [pg/mL] | Caspase-9 Conc. [7] [ng/mL] | Caspase-9 fold change [7] [fold] | Caspase-8 Conc. [8] [ng/mL] | Caspase-8 fold change [8] | viability at 4 days, 50 µM [9] [%] | Bax level [10] [pg/mL] | Bax fold change [10] [fold]
1 | 26 | 71 ± 5 | 24 ± 1 | 28 ± 1 | 16 ± 1 | CCS(=O)(=O)c1ccc2[nH]nc(C(=O)NNC(=O)NC34CC5CC(CC(C5)C3)C4)c2c1 [Compound 8g, 2-(5-(Ethylsulfonyl)-1H-indazole-3-carbonyl)-N-(adamantan-1-yl)hydrazine-1-carboxamide] | 320 ± 2 | 21 ± 3 | 21 | 1.80 ± 0.10 | 18 fold and 18.00 fold | 91 | 490 ± 2 | 8.20
2 | 24 | 68 ± 5 | 23 ± 1 | 25 ± 1 | 12 ± 1 | CCS(=O)(=O)c1ccc2[nH]nc(C(=O)NNC(=O)NC3CCCCCC3)c2c1 [Compound 8h, 2-(5-(Ethylsulfonyl)-1H-indazole-3-carbonyl)-N-(cycloheptyl)hydrazine-1-carboxamide] | 355 ± 2 | 23 ± 1 | 23 | 2.15 ± 0.20 | 21 fold and 21.50 fold | 90 | 510 ± 3 | 8.50
